Laboratory results taken from US20150119388A1, “NOVEL PRO- AND CODRUG DERIVATIVES FOR NANOPARTICLE DELIVERY OF SELECT ANTICANCER AGENTS FORMED USING RAPIDLY CLEAVABLE PHENOLIC ESTER BRIDGES” (THE CHILDREN'S HOSPITAL OF PHILADELPHIA, priority 2012, published 2015).

Columns and labels:
[1] = system: SY5Y-TrkB human neuroblastoma cells; assay: Tumor growth inhibition in the murine xenograft model of neuroblastoma; type: in vivo, athymic nu/nu mice; details: three weeks
Protocol: For xenograft studies, athymic nu/nu mice (nine animals per group) were injected in the flank with 10^7 SY5Y-TrkB human neuroblastoma cells in 0.3 mL […]™ matrix (BD Biosciences, Franklin Lakes, N.J.). Treatment was started when the average SY5Y-TrkB tumor size was 0.2 cm^3. Nanoparticles were administered intravenously through the tail vein twice a week at a dose equivalent to 10 mg/kg of SN-38 per injection for comparison against a ‘no treatment’ control and a clinically used irinotecan formulation (CAMPTOSAR®, Pfizer, given orally five times a week at a therapeutically relevant dose of 10 mg/kg as described in Thompson J. et al., Efficacy of oral irinotecan against neuroblastoma xenografts, Anticancer Drugs. 1997 April; 8(4):313-22). Tumor size in each group was measured daily over a period of three weeks. […] The error bars in FIG. 2A represent standard deviations.
Tumor growth inhibition by PLA-PEG nanoparticles loaded with an SN-38 conjugate with tocopherol succinate (made according to Example 7) was administered over 4 weeks at indicated dose regimens (each injection equivalent to 10 mg SN-38/kg) to animals xenografted as in Example 8. The effect is shown in comparison to irinotecan administered 5 times a week for 4 weeks at the same dose per injection. Animals were sacrificed after their tumors reached 3 cm^3. […]

[2] = system: carboxylesterase; details: carboxylesterase-mediated; rest eliminated through alternative pathways; cited from earlier work

For `CCc1c2c(nc3ccc(OC(=O)N4CCC(N5CCCCC5)CC4)cc13)-c1cc3c(c(=O)n1C2)COC(=O)[C@]3(O)CC` [irinotecan], the “efficacy on tumor size (FIG. 2A)” value ([1]; CAMPTOSAR given orally five times a week at 10 mg/kg (50 mg/kg per week)) is given as “showed efficacy vs. ‘no treatment’ control”, the “animal survival (FIG. 2B)” value ([1]; CAMPTOSAR given orally five times a week at 10 mg/kg, vs 'no treatment' control) is given as “significantly improved animal survival compared with the control group” and the “rate of conversion to the pharmacologically active SN-38” value [2] is given as “less than 10%”.
